Results published in the NIST ThermoML archive (doi:10.1016/j.jct.2016.01.017).
Numbers after ± are expanded uncertainties.

Assay: activity coefficient (dimensionless); of the first substance listed, at infinite dilution; xn = mol fraction of the nth substance listed
Details: 100 kPa, Liquid, Chromatography, x1 = 0

Row | SMILES | activity coefficient (308.15 K) | activity coefficient (318.15 K) | activity coefficient (328.15 K) | activity coefficient (338.15 K) | activity coefficient (348.15 K) | activity coefficient (358.15 K) | activity coefficient (368.15 K)
1 | Cc1ccccc1C [1,2-dimethylbenzene] + CCCC[n+]1ccc(C#N)cc1.O=S(=O)([N-]S(=O)(=O)C(F)(F)F)C(F)(F)F | 1.79 ± 0.15 | 1.89 ± 0.16 | 2 ± 0.17 | 2.1 ± 0.18 | 2.21 ± 0.19 | 2.3 ± 0.2 | 2.39 ± 0.21
2 | Cc1cccc(C)c1 [1,3-dimethylbenzene] + CCCC[n+]1ccc(C#N)cc1.O=S(=O)([N-]S(=O)(=O)C(F)(F)F)C(F)(F)F | 2.13 ± 0.18 | 2.25 ± 0.19 | 2.37 ± 0.2 | 2.49 ± 0.21 | 2.6 ± 0.22 | 2.71 ± 0.23 | 2.83 ± 0.24
3 | Cc1ccc(C)cc1 [1,4-dimethylbenzene] + CCCC[n+]1ccc(C#N)cc1.O=S(=O)([N-]S(=O)(=O)C(F)(F)F)C(F)(F)F | 2.15 ± 0.19 | 2.28 ± 0.2 | 2.4 ± 0.21 | 2.52 ± 0.22 | 2.65 ± 0.23 | 2.77 ± 0.24 | 2.89 ± 0.25
4 | C1COCCO1 [1,4-dioxane] + CCCC[n+]1ccc(C#N)cc1.O=S(=O)([N-]S(=O)(=O)C(F)(F)F)C(F)(F)F | 0.419 ± 0.041 | 0.461 ± 0.044 | 0.502 ± 0.046 | 0.544 ± 0.049 | 0.587 ± 0.052 | 0.631 ± 0.055 | 0.676 ± 0.058
5 | C=CCCCCCCCC [1-decene] + CCCC[n+]1ccc(C#N)cc1.O=S(=O)([N-]S(=O)(=O)C(F)(F)F)C(F)(F)F | 59.4 ± 5.1 | 57.3 ± 5 | 55.2 ± 4.8 | 53.5 ± 4.6 | 51.8 ± 4.5 | 50.4 ± 4.4 | 49 ± 4.2
6 | C=CCCCCC [1-heptene] + CCCC[n+]1ccc(C#N)cc1.O=S(=O)([N-]S(=O)(=O)C(F)(F)F)C(F)(F)F | 21.3 ± 1.8 | 20.7 ± 1.8 | 20 ± 1.7 | 19.5 ± 1.7 | 19 ± 1.6 | 18.5 ± 1.6 | 18.1 ± 1.6
7 | C#CCCCCC [1-heptyne] + CCCC[n+]1ccc(C#N)cc1.O=S(=O)([N-]S(=O)(=O)C(F)(F)F)C(F)(F)F | 6.92 ± 0.6 | 7.02 ± 0.61 | 7.11 ± 0.61 | 7.21 ± 0.62 | 7.3 ± 0.63 | 7.39 ± 0.64 | 7.48 ± 0.65
8 | C#CCCCC [1-hexyne] + CCCC[n+]1ccc(C#N)cc1.O=S(=O)([N-]S(=O)(=O)C(F)(F)F)C(F)(F)F | 4.81 ± 0.41 | 4.91 ± 0.42 | 5.01 ± 0.43 | 5.1 ± 0.44 | 5.19 ± 0.45 | 5.28 ± 0.46 | 5.36 ± 0.46
9 | CCC[N+](=O)[O-] [1-nitropropane] + CCCC[n+]1ccc(C#N)cc1.O=S(=O)([N-]S(=O)(=O)C(F)(F)F)C(F)(F)F | 0.74 ± 0.063 | 0.768 ± 0.065 | 0.796 ± 0.067 | 0.824 ± 0.069 | 0.851 ± 0.071 | 0.877 ± 0.073 | 0.904 ± 0.075
10 | C#CCCCCCC [1-octyne] + CCCC[n+]1ccc(C#N)cc1.O=S(=O)([N-]S(=O)(=O)C(F)(F)F)C(F)(F)F | 10.1 ± 0.9 | 10.2 ± 0.9 | 10.3 ± 0.9 | 10.3 ± 0.9 | 10.4 ± 0.9 | 10.4 ± 0.9 | 10.5 ± 0.9
11 | C=CCCC [1-pentene] + CCCC[n+]1ccc(C#N)cc1.O=S(=O)([N-]S(=O)(=O)C(F)(F)F)C(F)(F)F | 11.5 ± 1 | 10.9 ± 0.9 | 10.3 ± 0.9 | 9.83 ± 0.85 | 9.41 ± 0.81 | 9.02 ± 0.78 | 8.65 ± 0.75
12 | C#CCCC [1-pentyne] + CCCC[n+]1ccc(C#N)cc1.O=S(=O)([N-]S(=O)(=O)C(F)(F)F)C(F)(F)F | 3.4 ± 0.29 | 3.48 ± 0.3 | 3.56 ± 0.31 | 3.64 ± 0.31 | 3.7 ± 0.3 | 3.77 ± 0.33 | 3.84 ± 0.33
13 | CC(C)CC(C)(C)C [2,2,4-trimethylpentane] + CCCC[n+]1ccc(C#N)cc1.O=S(=O)([N-]S(=O)(=O)C(F)(F)F)C(F)(F)F | 46.5 ± 4 | 42.9 ± 3.7 | 39.8 ± 3.4 | 37 ± 3.2 | 34.7 ± 3 | 32.5 ± 2.8 | 30.7 ± 2.7
14 | CCC(C)(C)C [2,2-dimethylbutane] + CCCC[n+]1ccc(C#N)cc1.O=S(=O)([N-]S(=O)(=O)C(F)(F)F)C(F)(F)F | 34.9 ± 3 | 31.3 ± 2.7 | 28.2 ± 2.4 | 25.6 ± 2.2 | 23.4 ± 2 | 21.4 ± 1.9 | 19.7 ± 1.7
15 | CCOC(C)(C)C [2-ethoxy-2-methylpropane] + CCCC[n+]1ccc(C#N)cc1.O=S(=O)([N-]S(=O)(=O)C(F)(F)F)C(F)(F)F | 8.97 ± 0.77 | 8.89 ± 0.77 | 8.84 ± 0.76 | 8.8 ± 0.76 | 8.78 ± 0.76 | 8.73 ± 0.75 | 8.68 ± 0.75
16 | CCC(C)(C)OC [2-methoxy-2-methylbutane] + CCCC[n+]1ccc(C#N)cc1.O=S(=O)([N-]S(=O)(=O)C(F)(F)F)C(F)(F)F | 4.33 ± 0.37 | 4.48 ± 0.39 | 4.62 ± 0.4 | 4.76 ± 0.41 | 4.88 ± 0.42 | 5.01 ± 0.43 | 5.13 ± 0.44
17 | COC(C)(C)C [2-methoxy-2-methylpropane] + CCCC[n+]1ccc(C#N)cc1.O=S(=O)([N-]S(=O)(=O)C(F)(F)F)C(F)(F)F | 3.01 ± 0.26 | 3.13 ± 0.27 | 3.24 ± 0.28 | 3.35 ± 0.29 | 3.45 ± 0.3 | 3.56 ± 0.31 | 3.66 ± 0.32
18 | CC(C)CO [2-methyl-1-propanol] + CCCC[n+]1ccc(C#N)cc1.O=S(=O)([N-]S(=O)(=O)C(F)(F)F)C(F)(F)F | 3.2 ± 0.28 | 2.93 ± 0.25 | 2.7 ± 0.23 | 2.5 ± 0.22 | 2.32 ± 0.2 | 2.18 ± 0.19 | 2.04 ± 0.18
19 | CC(C)(C)O [2-methylpropan-2-ol] + CCCC[n+]1ccc(C#N)cc1.O=S(=O)([N-]S(=O)(=O)C(F)(F)F)C(F)(F)F | 2.28 ± 0.2 | 2.14 ± 0.18 | 2.01 ± 0.17 | 1.9 ± 0.16 | 1.8 ± 0.15 | 1.71 ± 0.15 | 1.63 ± 0.14
20 | CCC(C)CC [3-methylpentane] + CCCC[n+]1ccc(C#N)cc1.O=S(=O)([N-]S(=O)(=O)C(F)(F)F)C(F)(F)F | 30.7 ± 2.7 | 28.4 ± 2.5 | 26.4 ± 2.3 | 24.7 ± 2.1 | 23.1 ± 2 | 21.7 ± 1.9 | 20.6 ± 1.8
21 | C=C(C)c1ccccc1 [(1-methylethenyl)benzene] + CCCC[n+]1ccc(C#N)cc1.O=S(=O)([N-]S(=O)(=O)C(F)(F)F)C(F)(F)F | 1.94 ± 0.17 | 2.09 ± 0.18 | 2.24 ± 0.19 | 2.4 ± 0.21 | 2.55 ± 0.22 | 2.7 ± 0.23 | 2.86 ± 0.25
22 | CC(C)=O [acetone] + CCCC[n+]1ccc(C#N)cc1.O=S(=O)([N-]S(=O)(=O)C(F)(F)F)C(F)(F)F | 0.377 ± 0.039 | 0.403 ± 0.04 | 0.427 ± 0.042 | 0.453 ± 0.043 | 0.479 ± 0.045 | 0.505 ± 0.046 | 0.531 ± 0.048
23 | CC#N [acetonitrile] + CCCC[n+]1ccc(C#N)cc1.O=S(=O)([N-]S(=O)(=O)C(F)(F)F)C(F)(F)F | 0.432 ± 0.042 | 0.449 ± 0.043 | 0.466 ± 0.044 | 0.483 ± 0.045 | 0.5 ± 0.046 | 0.516 ± 0.047 | 0.531 ± 0.048
24 | c1ccccc1 [benzene] + CCCC[n+]1ccc(C#N)cc1.O=S(=O)([N-]S(=O)(=O)C(F)(F)F)C(F)(F)F | 1.07 ± 0.09 | 1.12 ± 0.09 | 1.17 ± 0.1 | 1.22 ± 0.1 | 1.28 ± 0.11 | 1.32 ± 0.11 | 1.38 ± 0.12
25 | CCCCO [butan-1-ol] + CCCC[n+]1ccc(C#N)cc1.O=S(=O)([N-]S(=O)(=O)C(F)(F)F)C(F)(F)F | 3.19 ± 0.28 | 2.94 ± 0.25 | 2.74 ± 0.24 | 2.56 ± 0.22 | 2.41 ± 0.21 | 2.28 ± 0.2 | 2.15 ± 0.19
26 | CCC(C)O (stereo unspecified) [butan-2-ol] + CCCC[n+]1ccc(C#N)cc1.O=S(=O)([N-]S(=O)(=O)C(F)(F)F)C(F)(F)F | 2.69 ± 0.23 | 2.5 ± 0.2 | 2.33 ± 0.2 | 2.18 ± 0.19 | 2.06 ± 0.18 | 1.94 ± 0.17 | 1.84 ± 0.16
27 | CCCC=O [butanal] + CCCC[n+]1ccc(C#N)cc1.O=S(=O)([N-]S(=O)(=O)C(F)(F)F)C(F)(F)F | 0.7 ± 0.06 | 0.738 ± 0.062 | 0.773 ± 0.065 | 0.811 ± 0.068 | 0.848 ± 0.071 | 0.884 ± 0.073 | 0.917 ± 0.076
28 | C1CCCCCC1 [cycloheptane] + CCCC[n+]1ccc(C#N)cc1.O=S(=O)([N-]S(=O)(=O)C(F)(F)F)C(F)(F)F | 22.3 ± 1.9 | 20.6 ± 1.8 | 19.1 ± 1.7 | 17.8 ± 1.5 | 16.7 ± 1.4 | 15.6 ± 1.3 | 14.8 ± 1.3
